These results are taken from article PMC5141252, “In silico Screening and Evaluation of the Anticonvulsant Activity of Docosahexaenoic Acid-Like Molecules in Experimental Models of Seizures” (Iranian Biomedical Journal, 2017).

Assay [1] concerns clonic seizures induced by pentylenetetrazole. Briefly: Pentylenetetrazole seizure test. The assay is classed as in vivo. The settings on record: mice; for Protection (%): 15 min before PTZ 60 mg/kg i.p.; for ED50 (mM) and 95% CI: PTZ clonic seizures, log-Probit analysis. As to the method: (§1) All compounds were prepared freshly before administration. The compounds were dissolved in DMSO and then were diluted in artificial cerebrospinal fluid consisting (in mM) 124.0 NaCl, 25 NaHCO3, 10 D-glucose,4.4 KCl, 2 MgSO4, 1.25 KH2PO4, and 2 CaCl2. The final concentration of DMSO was maintained at 10%. The pH of the solutions was adjusted at the range of 7.2-7.4. Doses of the compounds were selected based on the preliminary experiments conducted in our laboratory.
(§2) DHA-like molecules were administered by intracerebroventricular (i.c.v.) route according to the method described earlier. Briefly, a 3.5-mm-long needle (27 Gauge) was connected to a 10-μL Hamilton microsyringe. The site of injection was 2 mm lateral to the midline on a line drawn through the anterior base of the ears and 3.5 mm in depth from the surface of skull skin. The solution was injected at a rate of 10 µL/10 s and the needle left in place for 60 s after injection.
Fifteen minutes after i.c.v. injection of the compounds, PTZ (60 mg/kg) was injected to the mice intraperitoneally (i.p.). This time period was selected based on the time course of DHA anticonvulsant activity in mice[6]. The occurrence of colonic seizures was monitored in animals for 30 min.
(§3) Statistical analysis was performed by SPSS for Windows software version 16.0. Data obtained from the seizure tests were expressed as percentage of the protected mice. Fisher’s exact test was used to analyze the data. The dose of the drugs that produced anticonvulsant effect in 50% of the animals (ED50), and its associated 95% confidence interval, was calculated by log-Probit analysis.

The test system of assay [2] is tonic seizures induced by MES. Briefly: Maximal electroshock seizure test. The assay is classed as in vivo. Conditions: mice; for Protection (%): 15 min before MES (50 Hz, 50 mA); for ED50 (mM) and 95% CI: i.c.v., MES tonic seizures, log-Probit analysis. On the procedure: as §1, §2
Fifteen minutes after i.c.v. injection of the compounds, an electrical stimulus (50 Hz, 50 mA, 1 s duration) was delivered to the mice through ear-clip electrodes[6] using a stimulator apparatus (MGH-777, Development of Electronic Industry, Iran).
as §3

Assay [3] has as its system clonic seizures induced by pentylenetetrazole. Details: method as in PMID 26018398. The settings on record: PTZ test, mice, i.c.v administration; cited from earlier work.
Assay [4] relates to tonic seizures induced by MES. Further details: method as in PMID 26018398. The settings on record: cited from earlier work.

Marks after values point to notes of the source that are not given here.

For `CCC(C(=O)O)c1ccccc1` (stereo not shown) [2-Phenylbutyric acid], the “Protection (%)” value in assay [1] (dose 0.0001 M i.c.v.) is 0%; in assay [1] (dose 0.001 M i.c.v.), 30%; in assay [1] (dose 0.01 M i.c.v.), 40^b %; in assay [1] (dose 0.1 M i.c.v.), 56.6^a %. In addition, the “ED50 (mM) and 95% CI” value in assay [1] (i.c.v.) is on record as 70.0 (25.0-144.2) mM.
As for `COc1ccc(CC(=O)O)cc1OC` [3,4-Dimethoxyphenylacetic acid, 3,4-Dimethoxyphenylacetic acid], the “anticonvulsant activity (in words)” value in assay [1] (PTZ and MES seizure tests, i.c.v.) was “inactive”.
Turning to `O=C(O)Cc1ccc(-c2ccccc2)cc1` [4-Biphenylacetic acid], the “Protection (%)” value in assay [1] (dose 0.0001 M i.c.v.) is on record as 15%; in assay [1] (dose 0.001 M i.c.v.), 35%; in assay [1] (dose 0.0075 M i.c.v.), 50%; in assay [1] (dose 0.01 M i.c.v.) it was 85^a %. Moreover, the “ED50 (mM) and 95% CI” value in assay [1] (i.c.v.) is recorded as 5.0 (3.0-5.0) mM.
Turning to `O=C(O)CCCc1ccccc1` [4-Phenylbutyric acid], the entries for the “Protection (%)” value in assay [1] (dose 0.0001 M i.c.v.), in assay [1] (dose 0.001 M i.c.v.) and in assay [1] (dose 0.01 M i.c.v.) were 25%, 50^b % and 73.3^a %, respectively. For the same compound, the “ED50 (mM) and 95% CI” value in assay [1] (i.c.v.) was 4.0 (0.0-7.0) mM.
As to `CC(C)(C)C1CCC(C(=O)O)CC1` (stereo not shown) [4-tert-Butylcyclohexanecarboxylic acid], the “Protection (%)” value is recorded as 37.5% in assay [2] (dose 0.001 M i.c.v.), 46.6^b % in assay [2] (dose 0.01 M i.c.v.) and 73.3^a % in assay [2] (dose 0.1 M i.c.v.). For the same compound, the “ED50 (mM) and 95% CI” value in assay [2] (listed as 4-tert-Butylcyclo-hexanecarboxylic acid) is 637 mM; in assay [2] (listed as 4-tert-Butylcyclohexane carboxylic acid) it was 29.0 (0.0-66.0) mM.
For the compound `CC/C=C\C/C=C\C/C=C\C/C=C\C/C=C\C/C=C\CCC(=O)O` [DHA, Docosahexaenoic acid], the ED50 in assay [3] was 0.00013 mM. The “inhibition of tonic seizures in the MES model” value in assay [4] is given as “not able to inhibit tonic seizures”.
Regarding `O=C(O)Cc1ccccc1` [Phenylacetic acid], the “Protection (%)” value in assay [1] (dose 0.0001 M i.c.v.) is 0%; in assay [1] (dose 0.001 M i.c.v.), 20%; in assay [1] (dose 0.01 M i.c.v.) it was 30%; in assay [1] (dose 0.1 M i.c.v.), 57.5^a %. In addition, the “ED50 (mM) and 95% CI” value in assay [1] (i.c.v.) is recorded as 78 mM; in assay [1] (i.c.v., listed as Phenylbutyric acid), 78.0 (46.0-156.0) mM.
Regarding `O=C(O)C1=C[C@@H](O)[C@@H](O)[C@H](O)C1` [Shikimic acid], the “Protection (%)” value was 0% in assay [2] (dose 0.01 M i.c.v.), 20.0% in assay [2] (dose 0.1 M i.c.v.), 43.3^b % in assay [2] (dose 0.5 M i.c.v.) and 70.0^a % in assay [2] (dose 1 M i.c.v.). Further, the “ED50 (mM) and 95% CI” value is 637.0 (418.0-890.0) mM in assay [2] and 29 mM in assay [2] (listed as shikimic acid).
